Test results taken from patent US8697706B2 (priority 2011, dated 2014).

Tested on: HCV pseudoparticles (genotype 1a HCV E1 and E2 envelope, H77C isolate)
Experiment: microbe, parasite or virus in culture
Type: cell-based, HCV genotype 1a (H77C isolate)
Details: Hepatitis C virus, Huh-7, 48 h, HCV pseudoparticle entry into Huh7 cells, luciferase measured 2 days after infection

| SMILES | EC50 (average of duplicate) [nM] | EC50 (class symbol) [nM] |
| --- | --- | --- |
| CC1(C)CNCCCOc2ccc(cc2)CNc2nc(cc(OCC(F)(F)F)n2)Nc2ccc(cc2)C(=O)NC1 [Compound 3001] | 106 | 100 to 1000 |
| CC1(C)CNCCCOc2ccc(cc2)CNc2cc(OCC(F)(F)F)nc(n2)Nc2ccc(cc2)C(=O)NC1 [Compound 3002] |  | < 100 |
